In article PMC7093416, “Selective USP7 inhibition elicits cancer cell killing through a p53-dependent mechanism” (Scientific Reports, 2020):

System: panel of 484 cancer cell lines
Assay: PRISM cancer cell line profiling, 5 days
Assay type: cell-based
Parameters: AUC: unit not given beside the values
Method: Cancer cell line profiling was performed using the Broad’s PRISM platform. Cell treatment and data analysis were performed as described in Yu et al[42]. Raw Luminex signal was converted to AUC values for each cell line as described. The resulting AUC profile for each compound was modeled against DepMap using the limma package in R[71]. Because hotspot mutation analysis was performed against DepMap, TP53 annotations in Fig. 6c,d are directly from DepMap.

## CN1CCN(CCC(=O)Nc2ccc3c(=O)n(CC4(O)CCN(C(=O)[C@@H](CCCNC(=O)c5ccc6c(Cl)c7c(nc6c5)CCCC7)Cc5ccccc5)CC4)cnc3c2)CC1 [XL177A]
RVH421_SKIN
  AUC: 0.7933
S117_SOFT_TISSUE
  AUC: 0.8952
SBC5_LUNG
  AUC: 1.121
SCABER_URINARY_TRACT
  AUC: 0.8461
SCC25_UPPER_AERODIGESTIVE_TRACT
  AUC: 0.7649
SF126_CENTRAL_NERVOUS_SYSTEM
  AUC: 1.059
SF295_CENTRAL_NERVOUS_SYSTEM
  AUC: 1.367
SF539_CENTRAL_NERVOUS_SYSTEM
  AUC: 0.7901
SH4_SKIN
  AUC: 0.8355
SH10TC_STOMACH
  AUC: 0.9409
SIMA_AUTONOMIC_GANGLIA
  AUC: 1.153
SJSA1_BONE
  AUC: 0.9454
SKES1_BONE
  AUC: 1.123
SKHEP1_LIVER
  AUC: 1.003
SKLU1_LUNG
  AUC: 1.145
SKMEL2_SKIN
  AUC: 1.16
SKMEL3_SKIN
  AUC: 1.119
SKMEL5_SKIN
  AUC: 1.147
SKMEL24_SKIN
  AUC: 1.297
SKMEL30_SKIN
  AUC: 0.992
SKMES1_LUNG
  AUC: 0.9519
SKNAS_AUTONOMIC_GANGLIA
  AUC: 1.0969
SKNBE2_AUTONOMIC_GANGLIA
  AUC: 1.099
SKOV3_OVARY
  AUC: 0.9025
SKUT1_SOFT_TISSUE
  AUC: 1.15
SNB75_CENTRAL_NERVOUS_SYSTEM
  AUC: 0.9344
SNGM_ENDOMETRIUM
  AUC: 1.144
SNU46_UPPER_AERODIGESTIVE_TRACT
  AUC: 1.075
SNU61_LARGE_INTESTINE
  AUC: 1.293
SNU81_LARGE_INTESTINE
  AUC: 1.343
SNU213_PANCREAS
  AUC: 0.7501
SNU245_BILIARY_TRACT
  AUC: 1.4902
SNU308_BILIARY_TRACT
  AUC: 1.159
SNU398_LIVER
  AUC: 0.9557
SNU407_LARGE_INTESTINE
  AUC: 0.9921
SNU410_PANCREAS
  AUC: 1.104
SNU423_LIVER
  AUC: 0.9049
SNU449_LIVER
  AUC: 1.072
SNU466_CENTRAL_NERVOUS_SYSTEM
  AUC: 0.6104
SNU601_STOMACH
  AUC: 1.062
SNU668_STOMACH
  AUC: 0.8134
SNU685_ENDOMETRIUM
  AUC: 0.8198
SNU719_STOMACH
  AUC: 0.6005
SNU738_CENTRAL_NERVOUS_SYSTEM
  AUC: 0.9451
SNU761_LIVER
  AUC: 1.358
SNU840_OVARY
  AUC: 0.9553
SNU869_BILIARY_TRACT
  AUC: 1.237
SNU886_LIVER
  AUC: 1.085
SNU1041_UPPER_AERODIGESTIVE_TRACT
  AUC: 1.036
SNU1066_UPPER_AERODIGESTIVE_TRACT
  AUC: 1.434
SNU1076_UPPER_AERODIGESTIVE_TRACT
  AUC: 1.032
SNU1077_ENDOMETRIUM
  AUC: 1.075
SNU1079_BILIARY_TRACT
  AUC: 1.101
SNU1105_CENTRAL_NERVOUS_SYSTEM
  AUC: 1.015
SNU1196_BILIARY_TRACT
  AUC: 1.095
SNU1214_UPPER_AERODIGESTIVE_TRACT
  AUC: 0.7181
SNUC2A_LARGE_INTESTINE
  AUC: 1.088
SNUC4_LARGE_INTESTINE
  AUC: 1.036
SNUC5_LARGE_INTESTINE
  AUC: 1.147
SQ1_LUNG
  AUC: 0.9875
SUIT2_PANCREAS
  AUC: 0.9816
SW480_LARGE_INTESTINE
  AUC: 1.095
SW579_THYROID
  AUC: 0.8837
SW620_LARGE_INTESTINE
  AUC: 1.161
SW780_URINARY_TRACT
  AUC: 0.8743
SW837_LARGE_INTESTINE
  AUC: 1.139
SW900_LUNG
  AUC: 1.083
SW948_LARGE_INTESTINE
  AUC: 1.148
SW1088_CENTRAL_NERVOUS_SYSTEM
  AUC: 1.163
SW1271_LUNG
  AUC: 1.0015
SW1353_BONE
  AUC: 0.7826
SW1573_LUNG
  AUC: 1.097
SW1710_URINARY_TRACT
  AUC: 0.9553
SW1990_PANCREAS
  AUC: 0.9791
T3M10_LUNG
  AUC: 1.003
T24_URINARY_TRACT
  AUC: 1.033
T47D_BREAST
  AUC: 1.05
T98G_CENTRAL_NERVOUS_SYSTEM
  AUC: 0.9138
TCCPAN2_PANCREAS
  AUC: 1.167
TCCSUP_URINARY_TRACT
  AUC: 1.301
TE1_OESOPHAGUS
  AUC: 1.2696
TE4_OESOPHAGUS
  AUC: 1.044
TE5_OESOPHAGUS
  AUC: 0.9519
TE6_OESOPHAGUS
  AUC: 0.8165
TE8_OESOPHAGUS
  AUC: 1.003
TE9_OESOPHAGUS
  AUC: 1.141
TE10_OESOPHAGUS
  AUC: 0.9335
TE11_OESOPHAGUS
  AUC: 1.05
TEN_ENDOMETRIUM
  AUC: 0.8216
TM31_CENTRAL_NERVOUS_SYSTEM
  AUC: 1.2102
TM87_SOFT_TISSUE
  AUC: 1.188
TOV21G_OVARY
  AUC: 0.5189
TOV112D_OVARY
  AUC: 1.085
TP53 annotation by functional scores of Giacomelli et al.
  mean diff. between TP53 functional WT and functional mutant populations (AUC): 0.072 ± 0.016
TT2609C02_THYROID
  AUC: 0.9464
TT_OESOPHAGUS
  AUC: 1.06
TT_THYROID
  AUC: 0.8609
TUHR4TKB_KIDNEY
  AUC: 1.102
U2OS_BONE
  AUC: 1.296
U118MG_CENTRAL_NERVOUS_SYSTEM
  AUC: 1.069
U251MG_CENTRAL_NERVOUS_SYSTEM
  AUC: 0.9403
UACC62_SKIN
  AUC: 0.9957
UACC257_SKIN
  AUC: 0.801
UBLC1_URINARY_TRACT
  AUC: 0.854
UMUC1_URINARY_TRACT
  AUC: 0.8933
UO31_KIDNEY
  AUC: 1.106
VMCUB1_URINARY_TRACT
  AUC: 0.9786
VMRCRCW_KIDNEY
  AUC: 1.013
VMRCRCZ_KIDNEY
  AUC: 1.099
WM88_SKIN
  AUC: 1.176
WM793_SKIN
  AUC: 1.125
WM983B_SKIN
  AUC: 1.093
WM1799_SKIN
  AUC: 0.5219
WM2664_SKIN
  AUC: 0.9262
YAPC_PANCREAS
  AUC: 1.218
YD8_UPPER_AERODIGESTIVE_TRACT
  AUC: 0.881
YD10B_UPPER_AERODIGESTIVE_TRACT
  AUC: 0.9499
YD15_SALIVARY_GLAND
  AUC: 0.7713
YD38_UPPER_AERODIGESTIVE_TRACT
  AUC: 0.8781
YH13_CENTRAL_NERVOUS_SYSTEM
  AUC: 0.9484
YKG1_CENTRAL_NERVOUS_SYSTEM
  AUC: 0.9563
ZR751_BREAST
  AUC: 0.7595
